Measured values as given in publication PMC2191358 (The Journal of Experimental Medicine, 1994).
Residues, ends and D or L forms follow the SMILES beside them.

Assays:
[1] = target: TAP translocator (H-2d-derived microsomes) (Mus musculus, UniProt P21958+P36371); assay: biochemical
mouse microsomes = assay: Efflux of labeled peptide from loaded mouse microsomes; format: biochemical; settings: mouse liver microsomes in the presence of ATP; HPLC; data not shown
[2] = system: mouse TAP1/TAP2 translocator; assay: Accumulation of labeled peptide in mouse liver microsomes; settings: microsomes from TAP1 mutant (C57Bl/6 x 129/SV) mice; means of duplicates

Chain of TAP translocator (H-2d-derived microsomes) (P21958 whole entry): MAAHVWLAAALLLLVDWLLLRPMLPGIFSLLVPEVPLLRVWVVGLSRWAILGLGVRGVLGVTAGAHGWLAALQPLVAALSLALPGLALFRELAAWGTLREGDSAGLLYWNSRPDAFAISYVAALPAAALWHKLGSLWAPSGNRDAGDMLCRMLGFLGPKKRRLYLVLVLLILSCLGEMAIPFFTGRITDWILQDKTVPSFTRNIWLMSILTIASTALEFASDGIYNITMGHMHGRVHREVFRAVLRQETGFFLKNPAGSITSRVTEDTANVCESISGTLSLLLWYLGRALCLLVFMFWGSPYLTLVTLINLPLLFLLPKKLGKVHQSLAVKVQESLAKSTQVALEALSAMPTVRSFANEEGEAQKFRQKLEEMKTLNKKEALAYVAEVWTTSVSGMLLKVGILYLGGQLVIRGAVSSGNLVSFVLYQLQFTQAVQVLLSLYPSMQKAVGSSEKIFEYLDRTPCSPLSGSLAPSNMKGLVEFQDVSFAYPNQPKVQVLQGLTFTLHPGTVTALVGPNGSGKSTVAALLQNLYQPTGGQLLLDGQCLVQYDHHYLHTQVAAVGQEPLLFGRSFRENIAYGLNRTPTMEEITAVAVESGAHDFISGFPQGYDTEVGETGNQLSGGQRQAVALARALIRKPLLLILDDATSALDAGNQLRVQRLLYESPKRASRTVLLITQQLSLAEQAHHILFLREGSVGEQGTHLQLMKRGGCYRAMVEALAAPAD
Chain of TAP translocator (H-2d-derived microsomes) (P36371 whole entry): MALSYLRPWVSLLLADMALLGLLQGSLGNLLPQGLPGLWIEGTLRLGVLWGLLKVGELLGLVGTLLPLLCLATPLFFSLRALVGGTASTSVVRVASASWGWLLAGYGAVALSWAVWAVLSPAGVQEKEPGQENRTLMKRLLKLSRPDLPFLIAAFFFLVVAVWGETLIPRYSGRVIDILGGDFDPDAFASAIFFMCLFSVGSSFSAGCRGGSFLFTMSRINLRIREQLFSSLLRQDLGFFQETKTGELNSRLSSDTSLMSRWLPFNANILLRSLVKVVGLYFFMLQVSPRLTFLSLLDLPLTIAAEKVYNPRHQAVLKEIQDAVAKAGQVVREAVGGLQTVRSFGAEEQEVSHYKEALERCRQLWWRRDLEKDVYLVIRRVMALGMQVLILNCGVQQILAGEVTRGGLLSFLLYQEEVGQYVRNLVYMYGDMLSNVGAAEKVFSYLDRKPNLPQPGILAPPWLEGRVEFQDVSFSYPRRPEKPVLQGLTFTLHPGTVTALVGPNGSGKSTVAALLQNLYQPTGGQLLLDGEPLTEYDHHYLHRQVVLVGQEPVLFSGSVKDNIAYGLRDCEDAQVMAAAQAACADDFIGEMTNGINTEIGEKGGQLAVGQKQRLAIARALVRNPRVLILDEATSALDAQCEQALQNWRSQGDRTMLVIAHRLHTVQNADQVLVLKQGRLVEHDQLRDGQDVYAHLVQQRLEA

Molecule: CC(C)C[C@H](NC(=O)[C@H](C)NC(=O)[C@H](CCCNC(=N)N)NC(=O)[C@@H](NC(=O)[C@H](CCCNC(=N)N)NC(=O)[C@H](CCC(N)=O)NC(=O)[C@H](Cc1ccc(O)cc1)NC(=O)[C@@H](N)[C@@H](C)O)[C@@H](C)O)C(=O)N[C@H](C(=O)O)C(C)C (H-TYQRTRALV-OH)
- IC50 [1]: 3 µM

Molecule: CC(C)C[C@H](NC(=O)[C@H](C)NC(=O)[C@@H]1CCCN1C(=O)[C@H](Cc1ccc(O)cc1)NC(=O)[C@H](CC(N)=O)NC(=O)CNC(=O)[C@@H]1CCCN1C(=O)[C@H](C)NC(=O)[C@@H](N)Cc1ccccc1)C(N)=O [FAPGNYPAL]
- IC50 [1]: 3 µM
- Integrity of material accumulated by and released from microsomes (mouse microsomes): largely intact

Molecule: TYNRTRALI
- Accumulation of labeled peptide in TAP- microsomes [2]: do not accumulate
